In general, IC50 refers to the concentration that gives 50% inhibition. Read a high IC50 as lower potency.

This assay relates to P. falciparum 3D7 growth, pLDH absorbance. Put plainly: blood-stage malaria parasite growth potency – strain 3D7, dose response (AID 2305).
Molecule `CCCCc1ccc(S(=O)(=O)Nc2ccc3c(c2)CCN(Cc2c[nH]c4cnccc24)CC3)cc1` registered an IC50 of 670 nM.
For `COc1cc(C2C(Oc3ccccc3)C(=O)N2Cc2ccc(F)cc2)cc(OC)c1OC` (stereo unspecified) the value was 960 nM.
For `CCn1c(-c2nonc2N)nc2c(-c3cccc(NC(=O)Nc4ccccc4OC)c3)ncc(OCCCN)c21` the value was 1000 nM; for `N#Cc1cc([N+](=O)[O-])ccc1-n1nc(C(N)=O)n(Cc2cccc(F)c2)c1=S`, 720 nM; for `CC(C)(C)c1ccc(CN2CCCCC(NC(=O)c3cc(-c4cccc(Cl)c4)cs3)C2)cc1` (stereo unspecified), 1000 nM.
Next, `O=C(Nc1cccc(CN2CCCN(CC3CCCCC3)CC2)c1)c1ccc(Cl)c(Cl)c1`: 960 nM; `CN(CCCN(C)c1cc(NC(=O)c2ccc(F)cc2)ccn1)Cc1cccc(F)c1`: 1220 nM.
Turning to `c1csc(-c2nc(N3CCCCC3)ncc2-c2ccsc2)n1`, the IC50 turned out to be 140 nM. This IC50 is about 8.7-fold lower than that of the molecule before.
`O=c1c2sc(-c3ccc(Cl)cc3)cc2ncn1Cc1ccc(OCCN2CCCC2)c2ccccc12` yielded an IC50 of 250 nM.
For `Nc1cccc(CNCc2cccc(-c3ccc(-c4nc5ccc(C(F)(F)F)cc5[nH]4)cc3)c2)c1` the value was 360 nM.
Turning to `N#Cc1cccc(/C=C/C(=O)NC2CCC(CCN3CCc4ccc(-c5cnccn5)cc4CC3)CC2)c1` (stereo unspecified), the concentration for half-maximal inhibition (IC50) stood at 770 nM.
`CN1CCC(NCc2ccc(-c3ccc(S(=O)(=O)NCc4ccccc4)c(F)c3)cc2)CC1` gave a half-maximal inhibitory concentration (IC50) of 610 nM.
For `O=C(/C=C/c1ccc(C(F)(F)F)cc1)N1CCc2cc3nccc(N4CCN5CCC[C@H]5C4)c3cc21`, the IC50 is 1510 nM.
`CCCCCCNC(=O)c1nn(CCN2CCC(N3CCCC3)CC2)cc1-c1ccc(Cl)c(Cl)c1` displayed an IC50 of 730 nM. This IC50 lies about 2.1-fold lower than the previous one.
As to `O=C(Nc1ccc(Cl)c(Cl)c1)N1CCC(CN2CCC(c3c[nH]c4ccccc34)CC2)CC1`, the IC50 was 290 nM.
In turn, `COc1ccc(C(=O)Cn2nc(-c3ccc(Cl)cc3)ccc2=O)c(OC)c1` showed a half-inhibitory concentration (IC50) of 500 nM.
For `CCCCCCN(CCCCCC)CC(O)c1cc(-c2ccc(Cl)cc2)nc2c(C)cc(C)cc12` (stereo unspecified) the value was 70 nM; for `Cc1cc(N[C@@H](Cc2ccccc2)C(=O)NCCOc2ccccc2)nc(NCCc2cccs2)n1`, 1000 nM; for `CC(Cc1ccc(OCCN2CCN(c3ccccc3)CC2)cc1)NCC(O)c1cccc(Cl)c1F` (stereo unspecified), 870 nM.
In the case of `Cc1cc(Cl)ccc1N(Cc1ccccc1)c1ccnc(Cl)n1`, the IC50 amounted to 860 nM.
Next, `CN(C)CCCN1CCN(C(=O)c2cc3cc(-c4ccccc4)ccc3n2S(=O)(=O)c2ccccc2)CC1`: 120 nM; `C=CCOC(=O)N1CCC(CNCc2ccc(-c3ccc(-c4nc5ccc(C(F)(F)F)cc5[nH]4)cc3)cc2)C1` (stereo unspecified): 150 nM; `CN(C)CC(=O)Nc1cccc(Nc2nccc(NCC(O)c3ccccc3)n2)c1` (stereo unspecified): 980 nM.
Next, `Nc1nc(N)c2c(Oc3ccc(Cl)c(Cl)c3)cccc2n1`: 870 nM; `O=C(c1cncc(-c2ccccc2)c1)N(Cc1cncn1Cc1ccccc1F)CC1CC1`: 800 nM.
Next, `COc1ccc(CCN(Cc2cccs2)C(=O)c2cc3sccc3n2C)cc1OC`: 350 nM.
On to `Clc1ccc2c(NN=Cc3cccs3)ccnc2c1`, for which the IC50 was determined as 920 nM.
Next, `Cc1cccc2[nH]c(-c3ccc(-c4cccc(NC(=O)C(C)CN5CCN(C)CC5)c4)s3)nc12` (stereo unspecified): 750 nM; `COC(=O)c1ccc(C(=O)NCCCCN2CCC(c3ccc4c(c3OC)CCCC4)CC2)cc1-c1ccc(C(F)(F)F)cc1`: 1150 nM; `COc1ccc(C(c2ccc(N(C)C)cc2)c2ccc(N(C)C)cc2)cc1`: 60 nM.
For `CCOC(=O)c1cccc(NC(=O)Nc2cccc(-c3ncc(OCCCN)c4c3nc(-c3nonc3N)n4CC)c2)c1` the value was 890 nM.
Next, `Cc1cc(Nc2ccc(C)c(C)c2)n2nc(C)nc2n1`: 600 nM; `COc1c(F)cc(CC(C)NCC(O)c2cccc(Cl)c2)cc1F` (stereo unspecified): 1160 nM.
As for `COc1cc2c(Nc3cccc(NC(=O)c4ccccc4)c3)ncnc2cc1OCCCN1CCOCC1`, the IC50 amounted to 150 nM.
`COc1ccc2c(c1)CCCC2NCCCCNC(=O)c1ccc(NC(=O)c2ccc(Cl)cc2)cc1` (stereo unspecified) came in with an IC50 of 380 nM.
As for `CC(=O)c1ccc(NC(=O)Nc2ccc3nccc(N4CCN(C)CC4)c3c2)cc1`, the half-maximal inhibitory concentration (IC50) amounted to 430 nM.
Molecule `NC(N)=Nc1ccc(OCCCCCOc2ccc(N=C(N)N)c(Cl)c2)cc1Cl` displayed an IC50 of 860 nM.
For `CC(=O)c1ccc(NC(=O)NNC(=O)c2ccc(CCN3CCC(c4nc(COCC(F)(F)F)c(-c5ccc(F)cc5)o4)CC3)cc2)cc1` the value was 830 nM; for `O=C(/C=C/c1ccc(O)cc1)NC1CCC(CN2CCC(c3c[nH]c4ccccc34)CC2)CC1` (stereo unspecified), 740 nM.
For `Cc1noc(-c2ccc3c(c2)CCN(CCC2CCC(NC(=O)c4cc5ccccc5[nH]4)CC2)CC3)n1` (stereo unspecified) the value was 690 nM; for `COc1ccc(-c2nc(NC(=O)CS(=O)(=O)c3ccc(C)cc3)sc2C)cc1`, 400 nM; for `N#Cc1cccc(C(=O)NC2CCN(CCCCCNC(=O)/C=C/c3ccc(Cl)c(Cl)c3)CC2)c1`, 880 nM.
In the case of `COc1ccc(-c2ccc(NC(=O)c3cccc(Cl)c3)cc2)cc1CNC(C)C`, the IC50 turned out to be 470 nM.
For `CC(C)(C)c1ccc(C(=O)Nc2cccc(Nc3c(C(=O)NCc4cccc(C(F)(F)F)c4)cnc4c(O)cccc34)c2)cc1` the value was 1090 nM; for `Cc1c(F)cc(C(=O)NC2CC2)cc1-c1ccc2c(cnn2S(=O)(=O)c2cccs2)c1`, 860 nM.
For `COc1cc(Cc2cnc(N)nc2N)cc(OCCCCC2SC(=O)NC2=O)c1OC` (stereo unspecified) the value was 30 nM.
For `Cc1ccc2[nH]c(C)c(Br)c(=O)c2c1` the value was 810 nM.
In turn, `O=C(/C=C/c1ccc(Cl)c(Cl)c1)NC1CCC(CN2CCC(c3coc4ccccc34)CC2)CC1` (stereo unspecified) showed an IC50 of 830 nM.
The molecule `CC(C)CNC(=O)CN1C(=O)C(c2ccccc2)(c2ccccc2)N=C1N` had an IC50 of 820 nM.
Next, `CC1CCCCN1Cc1cccc(-c2c[nH]c3nc(NC4CCCC4)ncc23)c1` (stereo unspecified): 1310 nM; `Cc1cc(N[C@@H](CC(C)C)C(=O)NCc2cccc(F)c2)nc(NCCc2ccccc2)n1`: 1080 nM; `O=C(CCc1nc2c(cnn2-c2ccccc2)c(=O)[nH]1)NC1CCSc2ccccc21` (stereo unspecified): 1060 nM.
With `COCCNCc1ccc(-c2cccc(CN(C(=O)CCC3CCCC3)C3CCN(Cc4ccccc4)CC3)c2)cc1`, the IC50 worked out at 940 nM.
For `Fc1ccc2nc(-c3cccc(-c4cccc(CNCC5CCCO5)c4)c3)[nH]c2c1` (stereo unspecified) the value was 510 nM; for `CN1CCN(CCCNc2ncc3c(-c4ccc(NC(=O)Nc5cc(C(F)(F)F)ccc5F)c(F)c4)nn(C)c3n2)CC1`, 860 nM.
The molecule `CCn1c(Cc2ccccc2)nnc1SCC(=O)N1c2ccccc2Sc2ccccc21` came in with an IC50 of 590 nM.
For `Cc1cc(N(C)C)nc(Nc2ccc(NC(=O)c3c(F)cccc3F)cc2)n1` the value was 1380 nM.
As for `COc1ccc2nc(C)cc(NN=Cc3ccccc3Cl)c2c1`, the IC50 was determined as 600 nM.
Next, `CCc1ccc(NC(=O)c2cccc(CN3CCCN(CC4CCCCC4)CC3)c2)cc1`: 950 nM.
Take `O=C(Nc1ccc(Cn2ncc(N3CCCNCC3)c(Cl)c2=O)cc1)Nc1ccc(OCc2ccccc2)cc1`: the IC50 worked out at 820 nM.
Next, `CON=Cc1ccn(-c2ccc(O)c3c2C[C@H]2C[C@H]4[C@H](N(C)C)C(=O)C(C(N)=O)=C(O)[C@@]4(O)C(=O)C2=C3O)c1`: 770 nM.
Next, `c1ccc(Oc2ccc(Nc3ccnc4cc(-c5csc(CNCCN6CCOCC6)n5)ccc34)cc2)cc1`: 710 nM; `Cc1[nH]c2c(c(=O)c1Cl)-c1ccc(Oc3cccc(C(F)(F)F)c3)cc1C2=O`: 40 nM.
Next, `COCCN1CCC(C(=O)NCC(C)(C)c2nc(-c3ccc(Br)c(O)c3)c(-c3ccncc3)[nH]2)CC1`: 910 nM.
On to `Nc1nc(NCC2CCC(CNS(=O)(=O)c3cccc4ccccc34)CC2)nc2ccccc12` (stereo unspecified), for which the IC50 was found to be 800 nM.
For `N#Cc1ccc(NC2(C(=O)N3CCN(c4cccc(Cl)c4)CC3)CC2)c2ccccc12` the value was 1150 nM; for `COc1ccccc1N(C)CCNc1cc(C)nc(Nc2ccccc2)n1`, 1070 nM.
As to `CCOC(=O)CC[C@H](NC(=O)c1ccc(NS(=O)(=O)c2ccc(-c3cnc(N)[nH]c3=O)cc2)cc1)C(=O)OCC`, the IC50 was 170 nM.
`Cc1cc2c(cc1C(F)(F)F)N(C(=O)Nc1ccc(C(=O)NCCN3CCCC3)cc1)CC2` came in with an IC50 of 320 nM.
With `CN1CCN(CCCCCNc2c3ccccc3nc3ccccc23)CC1`, the IC50 turned out to be 740 nM.
With `CN(C)CCOc1cc(NC(=O)Nc2ccc(-c3ccccc3)cc2Cl)ccc1I`, the IC50 was found to be 250 nM.
`CN1CCCC(CN2CCN(Cc3cccc(-c4ccc(-c5nc6ccccc6[nH]5)cc4)c3)CC2)C1` (stereo unspecified) yielded an IC50 of 160 nM.
Next, `Cc1ccc(NC(=O)c2cc(Br)cc(N3CCCN(C)CC3)c2)cc1F`: 1340 nM.
Next, `O=C(/C=C/c1ccc(Cl)c(Cl)c1)NCCCCCN1CCCN(C(=O)Nc2ccc(F)c(Cl)c2)CC1`: 800 nM; `O=C1COC2(CN1C1CCN(Cc3ccc(O)c(Cl)c3)C1)c1ccccc1-c1ccccc12` (stereo unspecified): 960 nM; `COc1ccc2c(NN=Cc3ccccc3[N+](=O)[O-])cc(C)nc2c1`: 720 nM.
For `CC1CCCN(S(=O)(=O)c2ccc(NC(=O)c3cc(-c4ccccc4O)n[nH]3)cc2)C1` (stereo unspecified) the value was 760 nM.
For the molecule `CCCN(CC(=O)NCCc1ccccc1)c1ccc(C#N)c2ccccc12`, the IC50 worked out at 500 nM.
Molecule `CCCCN(CCCC)Cc1cc(N(C)c2ccc([N+](=O)[O-])cn2)ccc1O` yielded an IC50 of 540 nM.
As to `CC(C)(CNC(=O)[C@@H]1CCCN(Cc2ccc(Cl)cc2)C1)c1nc(-c2ccc(Cl)c(O)c2)c(-c2ccncc2)[nH]1`, the concentration for half-maximal inhibition (IC50) was determined as 940 nM. Compared with the last molecule, the IC50 is about 1.7-fold higher.
For `CC(C)(CNC(=O)C1CCN(CCOc2ccc(Cl)cc2)CC1)c1nc(-c2ccc(Cl)c(O)c2)c(-c2ccncc2)[nH]1` the value was 710 nM; for `COc1c(C2CCN(CCCCNC(=O)c3ccc(-c4ccc(Cl)cc4)cc3)CC2)ccc2c1C(C)(C)CCC2(C)C`, 780 nM.
For `OC(CNC1CCCCC1)Cn1c2ccc(I)cc2c2cc(I)ccc21` (stereo unspecified) the value was 340 nM.
`Cc1cc(NN=Cc2cccc(Cl)c2)c2ccc(F)cc2n1`: the IC50 was found to be 240 nM.
Next, `Cc1ccc2[nH]c(-c3ccccc3N)cc2c1`: 920 nM; `O=C(Nc1ccc(Cl)cc1)c1cc(Cl)ccc1NC(=O)C1(c2ccc(Cl)cc2)CCCC1`: 1100 nM.

The values are drawn from PubChem BioAssay AID2305 (GlaxoSmithKline (GSK), 2010).
